System: Sweetpotato whitefly (Bemisia tabaci)
Experiment: Action on Sweetpotato whitefly (Bemisia tabaci) on soybean plants, greenhouse foliar spray
Assay type: in vivo
Details: for Mean whitefly nymph response (Whitefly Nymphs D.A.A.-2): dose 60 ppm a.i. (text: 60 g a.i./ha, 200 L/ha), two applications 7 days apart, whole plant counts 3 days after 2nd application, greenhouse
Description: The active compound tested was formulated as a SL-type formulation.
Action on Sweetpotato whitefly (Bemisia tabaci)
A randomized block, 2 by 3 factorial experimental design was utilized to determine the interaction effects and main effects of two explanatory variables: product rate and soybean variety on the response variable, whitefly mortality. The study was conducted under greenhouse conditions and utilized lntacta™ (Bt-traited) and ‘BMX Potencia’ (non-traited) varieties at growth stage 11, respectively. All study plants were infested with Bemisia tabaciadults prior to application.
Formulated material of compound I-1 was combined with water and applied at concentration of 60 gai/ha with a CO2 pressurized spray boom at 200 L/ha water volume. The first application was timed to a threshold whitefly infestation, and was followed by a second application 7 days later.
Assessments were conducted by taking whole plant counts of adult and immature whiteflies at 3 days after the second application.

## CCN(C(=O)c1cnn(C(C)C(C)C)c1C)c1ccnnc1 (stereo not drawn) [I-1, 1-(1,2-dimethylpropyl)-N-ethyl-5-methyl-N-pyridazin-4-yl-pyrazole-4-carboxamide]
60 g a.i./ha, 3 days after second application, Intacta vs BMX Potencia soybean
  Effect against whiteflies in Intacta soybean relative to BMX Potencia: synergistic effect
BMX Potencia (non-traited) soybean
  Mean whitefly nymph response (Whitefly Nymphs D.A.A.-2): 4.91
Intacta (Bt-traited) soybean
  Mean whitefly nymph response (Whitefly Nymphs D.A.A.-2): 0.57

— US20190183124A1, “METHOD FOR CONTROLLING PESTS IN MODIFIED PLANTS” (BASF SE, priority 2016, published 2019)
